# Test system: not listed separately
# Assay: logP by HPLC on reversed-phase column (EEC Directive 79/831 Annex V.A8)
# Format: physicochemical
# Details: HPLC on reversed-phase column (C 18), 40° C., 0.1% aqueous formic acid and acetonitrile, linear gradient 10% to 90% acetonitrile
# Experimental: In table 1, the logP values were determined in accordance with EEC Directive 79/831 Annex V.A8 by HPLC (High Performance Liquid Chromatography) on a reversed-phase column (C 18), using the method described below: Temperature: 40° C.; Mobile phases: 0.1% aqueous formic acid and acetonitrile; linear gradient from 10% acetonitrile to 90% acetonitrile. Calibration was carried out using unbranched alkan-2-ones (comprising 3 to 16 carbon atoms) with known logP values (determination of the logP values by the retention times using linear interpolation between two successive alkanones). lambda-max-values were determined using UV-spectra from 200 nm to 400 nm and the peak values of the chromatographic signals.
row,logP,SMILES
1,3.39,Cn1nc(C(F)F)c(C(=O)N(Cc2ccnc3cc(Cl)cc(Cl)c23)C2CC2)c1F [Example 163]
2,3.11,CC(c1cnc(Cl)c(Cl)c1)N(C(=O)c1c(C(F)F)nn(C)c1F)C1CC1 (stereo not drawn) [Example 121]
3,4.24,CC(c1cc(Cl)sc1Cl)N(C(=O)c1c(C(F)F)nn(C)c1Cl)C1CC1 (stereo not drawn) [Example 127]
4,3.79,Cc1cc(C(C)N(C(=O)c2c(C(F)F)nn(C)c2Cl)C2CC2)c(C)s1 (stereo not drawn) [Example 49]

# More lines, now with the values behind:
row,SMILES,logP
1,CN(Cc1cnn(-c2ccccc2)c1)C(=O)c1c(C(F)F)nn(C)c1F [Example 109],2.26
2,Cn1nc(C(F)F)c(C(=O)N(Cc2nc3ccccc3s2)C2CC2)c1F [Example 98],2.68
3,Cn1nc(C(F)F)c(C(=O)N(Cc2cc(-c3cc(F)c(F)c(F)c3)no2)C2CC2)c1F [Example 165],3.53
4,Cn1nc(C(F)F)c(C(=S)N(Cc2cc3ccccc3o2)C2CC2)c1F [Example 73],3.76
5,CC(NC(=O)c1c(C(F)F)nn(C)c1F)c1cc2ccccc2s1 (racemic) [Example 82],2.98
6,Cc1ccsc1CN(C(=O)c1c(C(F)F)nn(C)c1Cl)C1CC1 [Example 39],3.02
7,CN(Cc1sc2ccccc2c1Cl)C(=O)c1c(C(F)F)nn(C)c1F [Example 142],3.48
8,Cn1nc(C(F)F)c(C(=O)NC2(c3cc4ccccc4o3)CCCC2)c1F [Example 75],3.52
9,Cn1nc(C(F)F)c(C(=S)N(Cc2csc3ccc(Cl)cc23)C2CC2)c1F [Example 145],4.36

# Same assay, conditions: HPLC, reversed-phase column (C 18), 40° C., 0.1% aqueous formic acid and acetonitrile, linear gradient 10% to 90% acetonitrile
row,logP,SMILES
1,2.76,Cn1nc(C(F)F)c(C(=O)N(Cc2c(C(F)(F)F)nn(C)c2OC(F)F)C2CC2)c1F [Example 170]

# Test system: Sphaerotheca fuliginea
# Assay: in vivo preventive test on Sphaerotheca fuliginea (cucumber)
# Details: 500 ppm of active ingredient, evaluated 7 days after inoculation
# Experimental: Solvent: 49 parts by weight of N,N-dimethylformamide Emulsifier: 1 part by weight of Alkylarylpolyglycolether To produce a suitable preparation of active compound, 1 part by weight of active compound is mixed with the stated amounts of solvent and emulsifier, and the concentrate is diluted with water to the desired concentration. To test for preventive activity, young plants are sprayed with the preparation of active compound at the stated rate of application. One day after this treatment, the plants are inoculated with an aqueous spore suspension of Sphaerotheca fuliginea. Then the plants are placed in a greenhouse at approximately 23° C. and a relative atmospheric humidity of approximately 70%. The test is evaluated 7 days after the inoculation. 0% means an efficacy which corresponds to that of the untreated control, while an efficacy of 100% means that no disease is observed.
row,SMILES,Efficacy
1,Cn1nc(C(F)F)c(C(=O)N(Cc2c(C(F)(F)F)nn(C)c2OC(F)F)C2CC2)c1F [Example 170],88%
2,Cn1nc(C(F)F)c(C(=S)N(Cc2cc3ccccc3o2)C2CC2)c1F [Example 73],85%
3,Cn1nc(C(F)F)c(C(=O)N(Cc2ccnc3cc(Cl)cc(Cl)c23)C2CC2)c1F [Example 163],100%
4,Cn1nc(C(F)F)c(C(=S)N(Cc2csc3ccc(Cl)cc23)C2CC2)c1F [Example 145],93%

# Test system: Alternaria solani
# Assay: in vivo preventive test on Alternaria solani (tomato)
# Details: 500 ppm of active ingredient, evaluated 7 days after inoculation
# Experimental: Solvent: 49 parts by weight of N,N-dimethylformamide Emulsifier: 1 part by weight of Alkylarylpolyglycolether To produce a suitable preparation of active compound, 1 part by weight of active compound is mixed with the stated amounts of solvent and emulsifier, and the concentrate is diluted with water to the desired concentration. To test for preventive activity, young plants are sprayed with the preparation of active compound at the stated rate of application. One day after this treatment, the plants are inoculated with an aqueous spore suspension of Alternaria solani. The plants remain for one day in an incubation cabinet at approximately 22° C. and a relative atmospheric humidity of 100%. Then the plants are placed in an incubation cabinet at approximately 20° C. and a relative atmospheric humidity of 96%. The test is evaluated 7 days after the inoculation. 0% means an efficacy which corresponds to that of the untreated control while an efficacy of 100% means that no disease is observed.
row,SMILES,Efficacy
1,Cn1nc(C(F)F)c(C(=O)N(Cc2c(C(F)(F)F)nn(C)c2OC(F)F)C2CC2)c1F [Example 170],95%
2,CN(Cc1cnn(-c2ccccc2)c1)C(=O)c1c(C(F)F)nn(C)c1F [Example 109],95%
3,Cn1nc(C(F)F)c(C(=O)N(Cc2nc3ccccc3s2)C2CC2)c1F [Example 98],80%
4,Cn1nc(C(F)F)c(C(=O)N(Cc2cc(-c3cc(F)c(F)c(F)c3)no2)C2CC2)c1F [Example 165],100%
5,Cn1nc(C(F)F)c(C(=S)N(Cc2cc3ccccc3o2)C2CC2)c1F [Example 73],90%
6,CC(NC(=O)c1c(C(F)F)nn(C)c1F)c1cc2ccccc2s1 (racemic) [Example 82],100%
7,Cc1ccsc1CN(C(=O)c1c(C(F)F)nn(C)c1Cl)C1CC1 [Example 39],95%
8,CC(c1cnc(Cl)c(Cl)c1)N(C(=O)c1c(C(F)F)nn(C)c1F)C1CC1 (stereo not drawn) [Example 121],95%
9,CN(Cc1sc2ccccc2c1Cl)C(=O)c1c(C(F)F)nn(C)c1F [Example 142],80%
10,CC(c1cc(Cl)sc1Cl)N(C(=O)c1c(C(F)F)nn(C)c1Cl)C1CC1 (stereo not drawn) [Example 127],95%
11,Cn1nc(C(F)F)c(C(=O)NC2(c3cc4ccccc4o3)CCCC2)c1F [Example 75],70%
12,Cn1nc(C(F)F)c(C(=S)N(Cc2csc3ccc(Cl)cc23)C2CC2)c1F [Example 145],90%
13,Cc1cc(C(C)N(C(=O)c2c(C(F)F)nn(C)c2Cl)C2CC2)c(C)s1 (stereo not drawn) [Example 49],80%

# Test system: Pyrenophora teres
# Assay: in vivo preventive test on Pyrenophora teres (barley)
# Details: 500 ppm of active ingredient, evaluated 7-9 days after inoculation
# Experimental: Solvent: 49 parts by weight of N,N-dimethylformamide Emulsifier: 1 part by weight of alkylaryl polyglycol ether To produce a suitable preparation of active compound, 1 part by weight of active compound is mixed with the stated amounts of solvent and emulsifier, and the concentrate is diluted with water to the desired concentration. To test for preventive activity, young plants are sprayed with the preparation of active compound at the stated rate of application. One day after this treatment, the plants are inoculated with an aqueous spore suspension of Pyrenophora teres. The plants remain for 48 hours in an incubation cabinet at 22° C. and a relative atmospheric humidity of 100%. Then the plants are placed in a greenhouse at a temperature of approximately 20° C. and a relative atmospheric humidity of approximately 80%. The test is evaluated 7-9 days after the inoculation. 0% means an efficacy which corresponds to that of the untreated control while an efficacy of 100% means that no disease is observed.
row,SMILES,Efficacy
1,Cn1nc(C(F)F)c(C(=O)N(Cc2c(C(F)(F)F)nn(C)c2OC(F)F)C2CC2)c1F [Example 170],100%
2,CN(Cc1cnn(-c2ccccc2)c1)C(=O)c1c(C(F)F)nn(C)c1F [Example 109],100%
3,Cn1nc(C(F)F)c(C(=O)N(Cc2nc3ccccc3s2)C2CC2)c1F [Example 98],100%
4,Cn1nc(C(F)F)c(C(=O)N(Cc2cc(-c3cc(F)c(F)c(F)c3)no2)C2CC2)c1F [Example 165],100%
5,Cn1nc(C(F)F)c(C(=S)N(Cc2cc3ccccc3o2)C2CC2)c1F [Example 73],100%
6,CC(NC(=O)c1c(C(F)F)nn(C)c1F)c1cc2ccccc2s1 (racemic) [Example 82],90%
7,Cn1nc(C(F)F)c(C(=O)N(Cc2ccnc3cc(Cl)cc(Cl)c23)C2CC2)c1F [Example 163],94%
8,Cc1ccsc1CN(C(=O)c1c(C(F)F)nn(C)c1Cl)C1CC1 [Example 39],100%
9,CC(c1cnc(Cl)c(Cl)c1)N(C(=O)c1c(C(F)F)nn(C)c1F)C1CC1 (stereo not drawn) [Example 121],100%
10,CN(Cc1sc2ccccc2c1Cl)C(=O)c1c(C(F)F)nn(C)c1F [Example 142],100%
11,CC(c1cc(Cl)sc1Cl)N(C(=O)c1c(C(F)F)nn(C)c1Cl)C1CC1 (stereo not drawn) [Example 127],95%
12,Cn1nc(C(F)F)c(C(=O)NC2(c3cc4ccccc4o3)CCCC2)c1F [Example 75],89%
13,Cn1nc(C(F)F)c(C(=S)N(Cc2csc3ccc(Cl)cc23)C2CC2)c1F [Example 145],100%
14,Cc1cc(C(C)N(C(=O)c2c(C(F)F)nn(C)c2Cl)C2CC2)c(C)s1 (stereo not drawn) [Example 49],95%
